Data published in patent US20100075361A1, “METHODS OF GENERATING FLORESCENCE RESONANCE ENERGY TRANSFER (FRET) BETWEEN SEMICONDUCTOR QUANTUM DOTS AND FLUORESCENT DYES/PROTEINS VIA MULTI-PHOTON EXCITATION, ACHIEVING ZERO BACKGROUND OR DIRECT EXCITATION CONTRIBUTIONS TO THE FRET SIGNATURE” (Government of the United States of America the Secretary of …, priority 2008, published 2010).

How the values were obtained:
[1] = Two-photon action cross-section measurement, fluorescein as standard; assay type: physicochemical; details: Water, 800 nm
Text: Steady-state composite spectra collected from samples under two-photon excitation were deconvoluted to yield individual photoluminence (PL) contributions using the known spectral profiles of isolated QDs and Cy3 dye emissions (see FIG. 4A, FIG. 4B, FIG. 4C and FIG. 4D).
Table 1 contains data describing two-photon action cross-sections for QDs populations in water and toluene, characterized using fluorescein as a standard in aqueous buffer (φσ2p=36 GM at 800 nm and pH 13), Cy3, fluorescein and wild-type green fluorescent protein (GFP) (from reference 28). Although multi-photon absorption profiles are non-linear optical phenomena, the longer wavelength emitting QD populations show higher two-photon action cross-sections, consistent with the one-photon absorption behavior.

HEK 293T/17 cells = experiment: Two-photon / one-photon fluorescence microscopy of cells incubated with QD-peptide conjugates; assay type: cell-based, human; details: two-photon excitation, 840 nm
Text: In the first exemplary embodiment, in regard to quantum dot peptide conjugates, cell penetrating peptide (CPP) was synthesized by Boc-solid phase peptide synthesis with the sequence (His)8-Trp-Gly-Leu-Ala-Aib-Ser-Gly-(Arg)8-amide, where Aib is the artificial residue alpha-amino isobutyric acid. The Cy3-labeled peptide was synthesized with the sequence, Ac-(His)6-Gly-Leu-Aib-[…]NH2, where Ac is an acetyl group at the N-terminus. This peptide was labeled with a maleimide-functionalized Cy3 at the cysteine residue. The polyhistidine sequences at the N-termini of the peptides allowed and/or caused their self-assembly on the QD surface. […]
Exemplary embodiments show a unique advantage of two-photon excitation to probe energy transfer between QDs and conjugated dye acceptors, while investigating the stability of self-assembled QD-peptide conjugates within cells using fluorescence microscopy. […]
Further, in the first exemplary embodiment, in regard to cell imaging, two-photon cell imaging is performed with a BIO-RAD MRC-1024 MP confocal system using ˜10 mW of 840 nm pulsed excitation (˜80 fs, 80 MHz) at the focal plane of a 60×, 0.9 NA water immersion objective microscope. […] DAPI fluorescence cross-talk was subtracted from the QD channel. […]

Row | Two-photon action cross-section [1] | Substance | Cy3 fluorescence / FRET from QDs to Cy3 in cells (HEK 293T/17 cells)
1 | <1 GM | Cy3 | –
2 | – | Tf-Cy3: Cy3-labeled transferrin, endosomal marker, mixed with unlabeled CPP-QD, not bound to QDs | does not show any evidence of Cy3 fluorescence
